Broadly, the IC50 is the concentration at which inhibition is half-maximal. Higher therefore signals a need for much substance.

For series [1], the system named is P. berghei oocyst formation. Put plainly: Bioluminescence assay of oocyst formation in vitro (Day0-Day3). The settings on record: mean. The class given is cell-based, Plasmodium berghei. On the procedure:
(§1) Purified ookinetes were seeded with Drosophila melanogaster S2 cells (Drosophila Genomics Resource Center, Bloomington, USA) in a 1:10 ratio (10^4 ookinetes and 10^5 S2 cells) in Schneider’s medium (S0146, Sigma-Aldrich) supplemented with 15% FBS, penicillin/streptomycin (50 U/ml, 50 µg/ml) and gentamicin (50 µg/ml) to promote oocyst development. Oocysts were co-cultured with D. melanogaster S2 cells in flat bottom 96-well plates (Corning, New York, USA) for up to 15 days at 19 °C. One-quarter of the medium was changed 3 times per week (every 48 to 72 h), and 10^5 S2 cells were added once per week. In parallel, S2 cells were maintained at 27 °C in Schneider’s medium (S0146, Sigma-Aldrich) supplemented with 10% FBS and penicillin/streptomycin (50 U/ml, 50 µg/ml).
(§2) A bioluminescence assay was used to assess the development of the mosquito stages of PbCSGFP-Luc. In order to evaluate the effect of compounds on the development of the parasite’s mosquito stages, samples were collected at 3 different time points to determine the effect on ookinete and oocyst formation, and oocyst maturation, as previously described. The bioluminescence assay was performed using the Firefly Luciferase Assay Kit (Biotium, Hayward, USA) according to the manufacturer’s instructions, with some modifications. Briefly, the whole well contents were collected and spun down, washed with PBS, frozen in 50 µl of lysis buffer (1:5 ratio) and stored at − 20 °C until further use. Collected samples were lysed and 30 µl of the resulting supernatant were transferred into white 96-well plates. Fifty µl of D-luciferin in Firefly luciferase assay buffer (1:50 ratio) were added to the samples and parasite load was determined by measuring luminescence intensity using a microplate reader (Tecan Infinite M200, Zurich, Switzerland).
(§3) The effect of eprinomectin, abamectin, ivermectin, moxidectin, doramectin and emamectin on the Plasmodium mosquito stages was evaluated as previously described. The compounds were dissolved in dimethyl sulfoxide (DMSO) and the amount of DMSO equivalent to that present in the highest compound concentration was used as a control. The effect of 10 µM of each compound was assessed on ookinetes, and on oocyst development and maturation. Briefly, after 1 h of incubation, the compounds were added to 5 µl of infected blood cultures, and the bioluminescence intensity of the parasites on the ookinete cultures was assessed 24 h later. To assess the effect of the compounds on oocyst development and maturation, compounds were mixed with the mature ookinetes, and parasites collected after 3 days of culture or compounds were added to the oocyst culture after 3 days of culture, and parasites collected 15 days later.
(§4) Compound concentration resulting in 50% inhibition (IC50) for oocyst growth and maturation were estimated for eprinomectin, abamectin, ivermectin, moxidectin, doramectin and emamectin (assayed at 0.05, 0.5, 1, 5, 10, 25 and 50 µM) by nonlinear regression analysis.

Series [2] deals with P. berghei oocyst growth/maturation. Description: Bioluminescence assay of oocyst growth/maturation in vitro (Day3-Day15). The series is classed as cell-based, Plasmodium berghei. The settings on record: mean. How it is done:
as §1, §2, §3, §4

Series [3] concerns P. berghei ookinete formation. Description: Bioluminescence assay of ookinete formation in vitro. The class given is cell-based, Plasmodium berghei. The settings on record: 10 µM, 24 h. On the procedure: Plasmodium berghei ANKA expressing green fluorescent protein (GFP) and luciferase under the control of the circumsporozoite protein (CSP) promoter (line 784cl1, RMgm-152, PbCSPGFP-Luc) was maintained in Anopheles stephensi mosquitoes and BALB/cByJ mice. To maintain gametocyte infectivity, only up to six passages of parasites from infected to naïve mice were performed. Ookinete in vitro production was performed as previously described. Briefly, BALB/cByJ mice were treated with 0.1 ml phenylhydrazine (25 mg/ml) 3 days prior to infection with 10^7 P. berghei-infected red blood cells (iRBC) obtained from a donor mouse. On the third day after infection, gametocytemia was monitored by light microscopy for the presence of exflagellating gametocytes in ookinete medium (1:4 dilution). […]
A bioluminescence assay was used to assess the development of the mosquito stages of PbCSGFP-Luc. […] Fifty µl of D-luciferin in Firefly luciferase assay buffer (1:50 ratio) were added to the samples and parasite load was determined by measuring luminescence intensity using a microplate reader (Tecan Infinite M200, Zurich, Switzerland).
The effect of eprinomectin, abamectin, ivermectin, moxidectin, doramectin and emamectin on the Plasmodium mosquito stages was evaluated as previously described. […] The effect of 10 µM of each compound was assessed on ookinetes, and on oocyst development and maturation. […]

The subject of series [4] is Drosophila melanogaster S2 cells. Put plainly: AlamarBlue in vitro cytotoxicity assay. The series is classed as cell-based. The settings on record: 10 µM, up to 7 days. On the procedure:
Compounds were screened for their in vitro cytotoxicity against D. melanogaster S2 cells, using the AlamarBlue® assay (Invitrogen, Carlsbad, USA). This assay allows to measure metabolic activity based on a fluoremetric/colorimetric indicator [28]. To assess the effect of the compounds on cell development, Drosophila melanogaster S2 cells were seeded in a 1:10 ratio (10^5 S2 cells) in Schneider’s medium (S0146, Sigma-Aldrich) supplemented with 15% FBS, penicillin/streptomycin (50 U/ml, 50 µg/ml) and gentamicin (50 µg/ml). All the above-mentioned compounds were added to the S2 cell cultures to a final concentration of 10 µM and the amount of DMSO equivalent to that present in the highest compound concentration was used as a control. Cultures were maintained for 7 days and one-quarter of the medium was changed 3 times per week every 48 to 72 h. Samples were collected every day by removing 120 µl of medium and adding 80 µl of AlamarBlue previously diluted in Schneider’s medium (1:10 dilution) to each well. The suspension was transferred to a 96 well flat bottom plate and incubated for one and a half hours at 37 °C. Fluorescence intensity was then measured using a microplate reader (Tecan Infinite M200) at 530 nm excitation wavelength/590 nm emission wavelength to determine cell viability.
(The colour change of resazurin is a common sign of viable cells or microbes.)

The subject of series [5] is P. berghei asexual and sexual blood stages. Description: In vivo activity of ivermectin against P. berghei blood stages in infected mice (flow cytometry, microscopy). The settings on record: single oral gavage 5 mg/kg, up to 5 days after infection. Also on record: species or system Plasmodium berghei (BALB/cByJ mice). The text has this: Male BALB/cByJ mice (6–8 weeks-old) purchased from Charles River Laboratories Inc. (Lyon, France) were used. Two parasite lines were employed in the experimental work, a transgenic parasite line termed PbCSGFP-Luc (RMgm-152),which expresses the fusion gene gfp-luc under the control of the csp promotor (PBANKA_0403200) integrated into the silent 230p gene locus (PBANKA_0306000), and the transgenic parasite line PbFluo-frmg (RMgm-164), which expresses GFP under control of the ‘male gametocyte-specific’ promoter of PB000791.03.0 (dynein heavy chain, putative) and RFP under the control of the ‘female gametocyte-specific’ promoter PB000504.02.0 (LCCL domain-containing protein CCP2). The rfp and gfp genes are integrated into the genome in the 230p locus (PBANKA_0306000).
In order to assess the in vivo activity of Iv, five BALB/cByJ (Charles River) mice per experimental group were infected by intraperitoneal injection of 10^7 P. berghei Fluo-frmg-infected red blood cells. Parasitaemia and gametocyteamia were measured the following days by flow cytometry analysis of 4 µl of tail blood. Blood was collected in 200 µl of PBS and 100 µl stored at 4 °C, while the remaining was transferred to 100 µl of PBS containing […] of red fluorescent nucleic acid stain Syto®61 (Thermo Fisher Scientific, Waltham, USA) and incubated for 20 min at room temperature in the dark. The samples were analysed on a LSRFortessa X-20 flow cytometer (Becton, Dickinson and Co., New Jersey, USA). Female and male gametocytes were gated based on the analysis of GFP and Red Fluorescence Protein (RFP) fluorescence, and parasitemia was estimated based on the analysis of Syto®61 and forward scatter. The positive cell population was determined by comparison of infected blood samples with an uninfected blood sample. Results were then analysed with the FlowJo^TM Software (Version 10, FlowJo^TM Software, Ashland, USA). Exflagellation was also monitored every day, until parasitemia reached 3% by microscopy analysis. To this end, 2.5 µl of tail blood were collected and mounted on a glass slide, and 8 min later the number of exflagellation events present in 4 independent fields of vision at 40× were determined. When parasitemia reached up to 3%, either DMSO or ivermectin were administered by oral gavage, at a concentration of 5 mg/kg, to five mice of each experimental group. Parasitemia, gametocytemia and exflagellation were monitored for 3 days after treatment, following which the mice were euthanized, and the experiment was terminated.

Regarding `CO[C@H]1C[C@H](O[C@H]2[C@H](C)O[C@@H](O[C@@H]3/C(C)=C/C[C@@H]4C[C@@H](C[C@]5(C=C[C@H](C)[C@@H](C6CCCCC6)O5)O4)OC(=O)[C@@H]4C=C(C)[C@@H](O)[C@H]5OC/C(=C\C=C\[C@@H]3C)[C@]54O)C[C@@H]2OC)O[C@@H](C)[C@@H]1O` [Doramectin, doramectin], the IC50 in series [1] worked out at 7.08 µM; in series [2], 4.32 µM.

Regarding `CO/N=C1\C[C@]2(C[C@@H]3C[C@@H](C/C=C(\C)C[C@@H](C)/C=C/C=C4\CO[C@@H]5[C@H](O)C(C)=C[C@@H](C(=O)O3)[C@]45O)O2)O[C@H](/C(C)=C/C(C)C)[C@H]1C` [Moxidectin, moxidectin], the results for the IC50 in series [1] (Plasmodium berghei) and in series [2] (Plasmodium berghei) were 10.8 µM and 5.49 µM, respectively.

Turning to abamectin, the results for the IC50 in series [1] and in series [2] were 8.77 µM and 7.93 µM, respectively.

Turning to emamectin, the “inhibition of ookinete formation (transformation of gametes/zygote into ookinetes)” value in series [3] is on record as “approximately 47%”. Moreover, the IC50 in series [1] is 7.31 µM; in series [2] it was 7.36 µM. Moreover, the “cytotoxicity against S2 cells (cell viability)” value in series [4] was “displays some cytotoxicity”.

On to eprinomectin, for which the figures for the IC50 in series [1] and in series [2] were 5.7 µM and 4.59 µM, respectively.

For ivermectin, in series [5], the “exflagellation events vs untreated controls” value is given as “no statistically significant differences”, the “female gametocytemia vs untreated controls” value is reported as “no statistically significant differences”, the “male gametocytemia vs untreated controls” value is reported as “no statistically significant differences” and the “overall parasitemia vs untreated controls” value is given as “no statistically significant differences”. In addition, the “inhibition of ookinete formation (transformation of gametes/zygote into ookinetes)” value in series [3] is “very small and non-significant impact”. In addition, inhibition in series [1] was half-maximal at 11.6 µM (IC50). For the same compound, the IC50 in series [2] was found to be 9.32 µM.

Values taken from PMC6873674, “Inhibition of Plasmodium sporogonic stages by ivermectin and other avermectins” (Parasites & Vectors, 2019).
